Experimental data taken from PubChem BioAssay AID328 (DTP/NCI, 2004).
Where “and” joins values, the source holds several entries; their conditions need not be identical. Identical values can stand only once. Toxic doses and inconclusive results are not listed.

Test system: BDF1 mice, P388 leukemia ip, median survival T/C
Experiment: NCI In Vivo Anticancer Drug Screen. Data for tumor model P388 Leukemia (intraperitoneal) in B6D2F1 (BDF1) mice
Details: endpoint: median survival time, higher = longer survival
In short: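 Vehicle-dosed animals serve as the reference; survival of compound-dosed, tumour-implanted mice is divided by it.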

[1] = dose: 100.0 mg/kg/injection, schedule: Q01DX009 (ip), vehicle: saline
[2] = dose: 200.0 mg/kg/injection, schedule: Q01DX009 (ip), vehicle: saline
[3] = dose: 50.0 mg/kg/injection, schedule: Q01DX009 (ip), vehicle: saline
[4] = dose: 100.0 mg/kg/injection, schedule: Q04DX003 (ip), vehicle: saline
[5] = dose: 50.0 mg/kg/injection, schedule: Q01DX009 (ip), vehicle: saline with Tween-80
[6] = dose: 25.0 mg/kg/injection, schedule: Q01DX009 (ip), vehicle: Klucel (hydroxypropylcellulose) (HPC)
[7] = dose: 50.0 mg/kg/injection, schedule: Q04DX003 (ip), vehicle: saline with Tween-80
[8] = dose: 100.0 mg/kg/injection, schedule: Q04DX003 (ip), vehicle: saline with Tween-80
[9] = dose: 100.0 mg/kg/injection, schedule: Q01DX009 (ip), vehicle: saline with Tween-80
[10] = dose: 200.0 mg/kg/injection, schedule: Q01DX009 (ip), vehicle: saline with Tween-80
[11] = dose: 400.0 mg/kg/injection, schedule: Q04DX003 (ip), vehicle: saline with Tween-80
[12] = dose: 100.0 mg/kg/injection, schedule: Q04DX003 (ip), vehicle: Klucel (hydroxypropylcellulose) (HPC)
[13] = dose: 50.0 mg/kg/injection, schedule: Q04DX003 (ip), vehicle: Klucel (hydroxypropylcellulose) (HPC)

In the case of `NC(=O)CC(N)c1nn[nH]n1` (centres undefined), the T/C [1] is reported as 95 % of control, the T/C [2] is reported as 100 % of control and the T/C (dose: 400.0 mg/kg/injection, schedule: Q01DX009 (ip), vehicle: saline) is reported as 90 % of control.
In the case of `CN(C)Cc1cc(C(C)(C)CC(C)(C)C)ccc1O`, the T/C (dose: 100.0 mg/kg/injection, schedule: Q04DX002 (ip), vehicle: Klucel (hydroxypropylcellulose) (HPC)) is reported as 114 % of control and the T/C (dose: 200.0 mg/kg/injection, schedule: Q04DX002 (ip), vehicle: Klucel (hydroxypropylcellulose) (HPC)) is reported as 99 % of control.
For `Nc1nc2ccccc2nc1N`, the T/C (dose: 25.0 mg/kg/injection, schedule: Q01DX009 (ip), vehicle: saline) was 100 % of control, the T/C (dose: 25.0 mg/kg/injection, schedule: Q04DX003 (ip), vehicle: saline) was 100 % of control and the T/C [3] was 100 % of control. The T/C (dose: 50.0 mg/kg/injection, schedule: Q04DX003 (ip), vehicle: saline) was 95 % of control, the T/C [1] was 90 % of control and the T/C [4] was 91 % of control.
With `Cc1cc(C)nc(NC(N)=NCCc2ccccc2)n1` the T/C (dose: 12.5 mg/kg/injection, schedule: Q01DX009 (ip), vehicle: saline with Tween-80) was 100 % of control, the T/C (dose: 25.0 mg/kg/injection, schedule: Q01DX009 (ip), vehicle: saline with Tween-80) was 95 % of control and the T/C [5] was 100 % of control.
For `COc1cccc2c1C(=O)c1c(O)c3c(c(O)c1C2=O)C[C@@](O)(C(C)=O)C[C@@H]3OC1CC(NC=O)C(O)C(C)O1` (some centres undefined), the T/C (dose: 0.25 mg/kg/injection, schedule: Q01DX009 (ip), vehicle: water) was 108 % of control and 110 % of control, the T/C (dose: 0.5 mg/kg/injection, schedule: Q01DX009 (ip), vehicle: water) was 110 % of control and 117 % of control and the T/C (dose: 1.0 mg/kg/injection, schedule: Q01DX009 (ip), vehicle: water) was 107 % of control. For the same compound, the T/C (dose: 2.0 mg/kg/injection, schedule: Q01DX009 (ip), vehicle: water) was 186 % of control, the T/C (dose: 4.0 mg/kg/injection, schedule: Q01DX009 (ip), vehicle: water) was 205 % of control and the T/C (dose: 8.0 mg/kg/injection, schedule: Q01DX009 (ip), vehicle: water) was 169 % of control.
For `Nc1ccc(C(=O)O)cn1`, the T/C (dose: 20.0 mg/kg/injection, schedule: Q01DX009 (ip), vehicle: saline) was 105 % of control, the T/C (dose: 40.0 mg/kg/injection, schedule: Q01DX009 (ip), vehicle: saline) was 98 % of control and the T/C (dose: 80.0 mg/kg/injection, schedule: Q01DX009 (ip), vehicle: saline) was 110 % of control.
`CCNC(C)(C)C(Cl)c1ccc(Cl)s1` (centres undefined) was tested, and the T/C [6] was 91 % of control, the T/C (dose: 25.0 mg/kg/injection, schedule: Q04DX003 (ip), vehicle: saline with Tween-80) was 104 % of control and the T/C (dose: 50.0 mg/kg/injection, schedule: Q01DX009 (ip), vehicle: Klucel (hydroxypropylcellulose) (HPC)) was 104 % of control. The T/C [7] was 101 % of control and the T/C [8] was 95 % of control.
For `Cc1ccc(C)c(-n2nnc3ccccc3c2=O)c1`, the T/C [9] was 100 % of control, the T/C [8] was 100 % of control and the T/C [10] was 86 % of control. For the same compound, the T/C (dose: 200.0 mg/kg/injection, schedule: Q04DX003 (ip), vehicle: saline with Tween-80) was 90 % of control, the T/C (dose: 400.0 mg/kg/injection, schedule: Q01DX009 (ip), vehicle: saline with Tween-80) was 100 % of control and the T/C [11] was 100 % of control.
In the case of `CC(=O)OCC(COC(C)=O)=C1N=C(c2ccccc2)OC1=O`, the T/C [5] is reported as 107 % of control, the T/C [9] is reported as 96 % of control and the T/C [8] is reported as 118 % of control. The T/C [10] was 115 % of control and the T/C [11] was 118 % of control.
With `C/C(=N\N=C(N)N)c1ccc(NC(=O)Nc2ccc(/C(C)=N/N=C(N)N)cc2)cc1` the T/C (dose: 1.5 mg/kg/injection, schedule: Q04DX003 (ip), vehicle: saline) was 115 % of control, the T/C (dose: 5.4 mg/kg/injection, schedule: Q04DX003 (ip), vehicle: saline) was 150 % of control and the T/C (dose: 44.0 mg/kg/injection, schedule: Q04DX003 (ip), vehicle: saline) was 163 % of control. For the same compound, the T/C (dose: 66.0 mg/kg/injection, schedule: Q04DX003 (ip), vehicle: saline) was 118 % of control, the T/C [4] was 154 % of control and the T/C (dose: 200.0 mg/kg/injection, schedule: Q04DX003 (ip), vehicle: saline) was 179 % of control. The T/C (dose: 264.0 mg/kg/injection, schedule: Q04DX003 (ip), vehicle: saline) was 180 % of control and 222 % of control and the T/C (dose: 400.0 mg/kg/injection, schedule: Q04DX003 (ip), vehicle: saline) was 236 % of control and 241 % of control and 190 % of control.
For `O=[N+]([O-])/C=C/c1ccccc1Cl`, the T/C (dose: 2.2 mg/kg/injection, schedule: Q01DX009 (ip), vehicle: other) was 110 % of control, the T/C (dose: 3.3 mg/kg/injection, schedule: Q01DX009 (ip), vehicle: other) was 119 % of control and the T/C (dose: 5.0 mg/kg/injection, schedule: Q01DX009 (ip), vehicle: other) was 122 % of control. For the same compound, the T/C (dose: 6.6 mg/kg/injection, schedule: Q04DX003 (ip), vehicle: other) was 109 % of control, the T/C (dose: 7.5 mg/kg/injection, schedule: Q01DX009 (ip), vehicle: other) was 115 % of control and the T/C (dose: 10.0 mg/kg/injection, schedule: Q04DX003 (ip), vehicle: other) was 104 % of control. The T/C (dose: 37.5 mg/kg/injection, schedule: Q01DX009 (sc), vehicle: olive oil, sesame oil, peanut oil) was 100 % of control, the T/C (dose: 37.5 mg/kg/injection, schedule: Q04DX003 (sc), vehicle: olive oil, sesame oil, peanut oil) was 95 % of control and the T/C (dose: 75.0 mg/kg/injection, schedule: Q01DX009 (sc), vehicle: olive oil, sesame oil, peanut oil) was 109 % of control. The T/C (dose: 75.0 mg/kg/injection, schedule: Q04DX003 (sc), vehicle: olive oil, sesame oil, peanut oil) was 90 % of control, the T/C (dose: 150.0 mg/kg/injection, schedule: Q01DX009 (sc), vehicle: olive oil, sesame oil, peanut oil) was 100 % of control and the T/C (dose: 150.0 mg/kg/injection, schedule: Q04DX003 (sc), vehicle: olive oil, sesame oil, peanut oil) was 104 % of control.
With `CCCCCCCCN(c1ccc(I)cc1)S(=O)(=O)c1ccc(C)cc1` the T/C [7] was 111 % of control and the T/C [8] was 111 % of control.
For `CC1(C)CCC(=O)O1`, the T/C (dose: 25.0 mg/kg/injection, schedule: Q01DX009 (ip), vehicle: water) was 104 % of control, the T/C (dose: 50.0 mg/kg/injection, schedule: Q01DX009 (ip), vehicle: water) was 104 % of control and the T/C (dose: 100.0 mg/kg/injection, schedule: Q01DX009 (ip), vehicle: water) was 91 % of control. The T/C (dose: 200.0 mg/kg/injection, schedule: Q01DX009 (ip), vehicle: water) was 103 % of control and the T/C (dose: 400.0 mg/kg/injection, schedule: Q01DX009 (ip), vehicle: water) was 91 % of control.
`O=C(OC1C=CCC1)c1ccc([N+](=O)[O-])cc1` (centres undefined) was tested, and the T/C [12] was 100 % of control, the T/C (dose: 200.0 mg/kg/injection, schedule: Q04DX003 (ip), vehicle: Klucel (hydroxypropylcellulose) (HPC)) was 100 % of control and the T/C (dose: 400.0 mg/kg/injection, schedule: Q04DX003 (ip), vehicle: Klucel (hydroxypropylcellulose) (HPC)) was 100 % of control.
With `Cn1c(=O)[nH]cc([N+](=O)[O-])c1=O` the T/C [5] was 104 % of control, the T/C [9] was 105 % of control and the T/C [10] was 98 % of control.
For `c1ccc(C2OC2c2ccccc2)cc1` (centres undefined), the T/C [13] was 89 % of control, the T/C (dose: 75.0 mg/kg/injection, schedule: Q01DX009 (ip), vehicle: Klucel (hydroxypropylcellulose) (HPC)) was 90 % of control and the T/C [12] was 89 % of control. The T/C (dose: 150.0 mg/kg/injection, schedule: Q01DX009 (ip), vehicle: Klucel (hydroxypropylcellulose) (HPC)) was 104 % of control and the T/C (dose: 300.0 mg/kg/injection, schedule: Q01DX009 (ip), vehicle: Klucel (hydroxypropylcellulose) (HPC)) was 104 % of control.
For `Cc1c(C#N)c2n(c1C)CCN2`, the T/C (dose: 6.0 mg/kg/injection, schedule: Q01DX009 (ip), vehicle: Klucel (hydroxypropylcellulose) (HPC)) was 104 % of control, the T/C (dose: 12.0 mg/kg/injection, schedule: Q01DX009 (ip), vehicle: Klucel (hydroxypropylcellulose) (HPC)) was 86 % of control and the T/C [6] was 92 % of control and 100 % of control. For the same compound, the T/C (dose: 25.0 mg/kg/injection, schedule: Q04DX003 (ip), vehicle: Klucel (hydroxypropylcellulose) (HPC)) was 95 % of control, the T/C [13] was 100 % of control and the T/C [12] was 108 % of control.
In the case of `O=C(O)C1=CC(O)C(O)C(O)C1` (centres undefined), the T/C [3] is reported as 87 % of control, the T/C [1] is reported as 100 % of control and the T/C (dose: 100.0 mg/kg/injection, schedule: Q04DX003 (ip), vehicle: saline sonified) is reported as 100 % of control. For the same compound, the T/C [2] was 91 % of control, the T/C (dose: 200.0 mg/kg/injection, schedule: Q04DX003 (ip), vehicle: saline sonified) was 100 % of control and the T/C (dose: 400.0 mg/kg/injection, schedule: Q04DX003 (ip), vehicle: saline sonified) was 100 % of control.
